# Results taken from patent US6500959B1, “Pyrrolidine derivatives and processes for preparing same” (GPI NIL Holdings, Inc., priority 1995, dated 2002).
# Entries after “also recorded” stand apart in the source; their conditions may differ.
# Tests used:
# [1] = tested on: chick dorsal root ganglia; test: Chick dorsal root ganglion cultures and neurite outgrowth; assay type: cell-based; conditions: 48 h
# From the text: Forty-eight hours later, the number of neurite with a length greater than one DRG explant was quantitated. The number of neurites expressed in untreated DRG's was subtracted from the neurite number of Example 17—treated samples to yield Example 17—dependent specific neurite outgrowth.
# Forty-eight hours later, the number of neurite with a length greater than one DRG explant was quantitated. The number of neurites expressed in untreated DRG's was subtracted form the neurite number of Example 17—treated samples to yield Example 17—dependent specific neurite outgrowth. Quantitative dose-dependent neurite outgrowth elicited by Example 17 is presented.
# Dorsal root ganglia were dissected from chick embryos of ten day gestation. Whole ganglion explants were cultured on thin layer Matrigel-coated 12 well plates with Liebovitz L15 plus high glucose media supplemented with 2 mM glutamine and 10% fetal calf serum, and also containing 10 μM cytosine β-D arabinofuranoside (Ara C) at 37° C. in an environment containing 5% CO2. Twenty-four hours later, the DRGs were treated with various concentrations of nerve growth factor, immunophilin ligands or combinations of NFG plus drugs. Forty-eight hours after drug treatment, the ganglia were visualized under phase contrast or Hoffman Modulation contrast with a Zeiss Axiovert inverted microscope. Photomicrographs of the explants were made, and neurite outgrowth was quantitated. Neurites longer than the DRG diameter were counted as positive, with total number of neurites quantitated per each experimental condition. Three to four DRGs are cultured per well, and each treatment was performed in duplicate.
# dopaminergic neurons = test: MPTP model of Parkinson's Disease in mice; assay type: in vivo, CD1 mice
# Method: FIG. 4 is a graph of [^3H]-CFT binding per μg of Striatal Membrane Protein. […] CD1 mice (25 g) were treated daily with 30 mg/kg MPTP (i.p.) for 5 days. […] After eighteen days, the mice were sacrificed, striata from 5 animals per group were pooled and processed into a washed membrane preparation. Binding of [3H]-CFT to these striated membrane preparations of various groups was quantitated to determine dopamine transporter levels on viable nerve terminals. Binding in the presence of 10 μM unlabelled CFT provided on estimate of nonspecific binding, which as subtracted from the total binding to quantitative specific [3H]-CFT bound. Binding was normalized to the protein content of the striatal membranes from each experimental group. Coronal and saggital brain sections from MPTP and drug treated animals were stained with anti-tyrosine hydroxylase (TH) Ig to quantitate striatal, medial forebrain bundle axonal and nigral levels of TH, which is indicative of functional dopaminergic neurons. […] Binding of [3H]CFT, a radioligand for the dopamine transporter, to the […] membranes was done to quantitate the level of the dopamine transporter (DAT) following lesion and drug treatment. Immunostaining was performed on saggital and coronal brain sections using anti-tyrosine hydoxylase Ig to quantitate survival and recovery of dopaminergic neurons. […]
compound,measurement,setting,value
"CCC(C)(C)C(=O)C(=O)N1CCC[C@H]1C(=O)OCCCc1cccnc1 [Example 17, 3-(3-Pyridyl)-1-propyl (2S)-1-(3,3-dimethyl-1,2-dioxopentyl)-2-pyrrolidinecarboxylate]",EC50,"[1]; Gallus gallus, read-out: ED50, neurite outgrowth",0.05 nM
same,neurite outgrowth in sensory neuronal cultures,"[1]; chick DRG explants, various concentrations",potently promotes neurite outgrowth
same,recovery of [3H]-CFT binding,"dopaminergic neurons; 40 mg/kg s.c. in addition to MPTP, striatal membranes, dopamine transporter level",greater than 90%
same,recovery of TH-stained dopaminergic neurons (tyrosine hydroxylase immunostaining),"dopaminergic neurons; 10-40 mg/kg s.c., striatum, nigra, medial forebrain bundle, versus MPTP/Vehicle",nearly quantitative recovery; also recorded: clear and marked recovery of functional neurons
